Measurements reported in patent US10669272B2, “Substituted naphthyridinone compounds useful as T cell activators” (BRISTOL-MYERS SQUIBB COMPANY, priority 2018, dated 2020).
Read-outs that look alike come from different tables or passages of the source.

Key:
[1] = target: T1, human DGKα (Homo sapiens, UniProt P23743); assay: DGKα LIPGLO assay (extruded liposome substrate), in vitro DGK inhibition; assay type: biochemical; settings: liposome (LIPGLO) assay; read-out: DGKa LIPGLO IC50
T1 construct: TVMV protease cleavage site (C); Hexa-His (C); made in house; host or cells: Sf9 insect cells (baculovirus, Bac-to-Bac)
T1 sequence (P23743 with tags, fused parts or gaps): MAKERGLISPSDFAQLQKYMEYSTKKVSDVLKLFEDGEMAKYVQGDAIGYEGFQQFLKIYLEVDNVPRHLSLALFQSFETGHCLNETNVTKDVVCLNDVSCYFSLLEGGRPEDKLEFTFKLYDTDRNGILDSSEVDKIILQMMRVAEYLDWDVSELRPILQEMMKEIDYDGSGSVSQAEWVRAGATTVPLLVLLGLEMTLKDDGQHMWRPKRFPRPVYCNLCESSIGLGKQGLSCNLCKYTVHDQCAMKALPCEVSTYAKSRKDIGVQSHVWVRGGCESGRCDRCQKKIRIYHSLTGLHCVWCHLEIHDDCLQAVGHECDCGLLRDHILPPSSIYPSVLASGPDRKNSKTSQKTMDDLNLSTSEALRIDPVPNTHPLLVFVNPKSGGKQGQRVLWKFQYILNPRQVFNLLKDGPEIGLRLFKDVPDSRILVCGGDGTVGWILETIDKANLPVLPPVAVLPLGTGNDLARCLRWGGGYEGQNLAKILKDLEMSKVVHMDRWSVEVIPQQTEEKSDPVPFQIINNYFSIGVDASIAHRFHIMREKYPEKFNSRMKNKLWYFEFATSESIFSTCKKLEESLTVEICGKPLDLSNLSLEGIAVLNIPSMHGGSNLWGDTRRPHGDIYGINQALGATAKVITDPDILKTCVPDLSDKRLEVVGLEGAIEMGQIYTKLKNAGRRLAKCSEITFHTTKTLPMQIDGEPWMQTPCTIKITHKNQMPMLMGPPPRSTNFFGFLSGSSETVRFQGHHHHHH

[2] = target: T2, human DGKζ (Homo sapiens, UniProt Q13574); assay: DGKζ LIPGLO assay (extruded liposome substrate), in vitro DGK inhibition; assay type: biochemical; settings: liposome (LIPGLO) assay; read-out: DGKz LIPGLO IC50
T2 construct: TVMV protease cleavage site (C); Hexa-His (C); made in house; host or cells: Sf9 insect cells (baculovirus, Bac-to-Bac)
T2 sequence (Q13574 with tags, fused parts or gaps isoform Q13574-4): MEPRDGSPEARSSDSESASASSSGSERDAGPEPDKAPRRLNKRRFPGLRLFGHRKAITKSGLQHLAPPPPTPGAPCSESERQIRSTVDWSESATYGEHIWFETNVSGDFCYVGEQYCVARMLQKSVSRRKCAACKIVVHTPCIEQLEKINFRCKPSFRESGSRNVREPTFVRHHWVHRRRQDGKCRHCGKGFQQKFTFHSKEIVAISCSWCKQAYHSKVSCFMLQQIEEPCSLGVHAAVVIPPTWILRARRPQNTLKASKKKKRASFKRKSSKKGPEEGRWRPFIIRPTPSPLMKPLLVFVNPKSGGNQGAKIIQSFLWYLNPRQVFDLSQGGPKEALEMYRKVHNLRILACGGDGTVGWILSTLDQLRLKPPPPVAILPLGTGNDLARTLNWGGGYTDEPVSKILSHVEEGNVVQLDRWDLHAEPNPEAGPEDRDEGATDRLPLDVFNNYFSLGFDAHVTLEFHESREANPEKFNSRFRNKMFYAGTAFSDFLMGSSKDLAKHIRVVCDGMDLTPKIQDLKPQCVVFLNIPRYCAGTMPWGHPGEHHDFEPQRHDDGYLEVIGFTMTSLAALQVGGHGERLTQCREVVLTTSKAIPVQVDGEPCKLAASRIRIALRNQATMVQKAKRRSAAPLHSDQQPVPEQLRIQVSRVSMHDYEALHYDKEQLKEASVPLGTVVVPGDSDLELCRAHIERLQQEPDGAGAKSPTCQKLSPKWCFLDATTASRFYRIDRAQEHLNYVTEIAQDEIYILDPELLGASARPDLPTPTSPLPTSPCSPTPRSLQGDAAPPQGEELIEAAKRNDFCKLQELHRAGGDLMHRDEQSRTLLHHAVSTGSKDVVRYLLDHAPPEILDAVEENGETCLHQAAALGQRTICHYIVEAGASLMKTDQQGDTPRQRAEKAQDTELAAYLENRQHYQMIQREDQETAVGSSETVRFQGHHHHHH

[3] = test system: OT-1 CD8+ T cells with SIINFEKL-loaded MC38 tumor cells; assay: Murine cytotoxic T lymphocyte assay (IFN-γ, OT-1 CTL with MC38 tumor cells); assay type: cell-based, mouse; settings: read-out: msCTL INFg IC50
How it was run: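 OT-1 CD8+ T cells, expanded 5 days with OVA peptide (1 μg/mL) and mIL2, pretreated 1 h with DGK inhibitors, then co-cultured overnight at 37° C at 1:10 with MC38 cells pulsed 3 h with 1 μg/mL SIINFEKL. IFN-γ in 24 h supernatant by AlphaLISA.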

[4] = test system: naïve human CD8 T cells; assay: Human CD8 T cells IFN-γ assay; assay type: cell-based; settings: normalized to 3 μM reference compound with anti-CD3 plus anti-CD28 as 100% activation, read-out: HuCD8 INFG Normalized EC50;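 also: Naïve human CD8 T cells stimulated with plate-bound anti-CD3 and soluble anti-CD28, IFN-γ in supernatant quantified by AlphaLISA and converted to pg/mL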
[5] = test system: Human venous whole blood; assay: Human whole blood IFN-γ assay; assay type: cell-based; settings: human whole blood, normalized to 3 μM reference compound with anti-CD3 plus anti-CD28 as 100% activation, read-out: INFg Whole Blood Normalized Agonist EC50;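 also: blood from healthy donors exposed to compound for 1 h before stimulation with anti-CD3 and anti-CD28 at 1 µg/mL each, IFN-γ quantified in supernatant by AlphaLISA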
Protocol: Human Whole Blood IFN-γ Assay
Human venous whole blood (22.5 μL per well), obtained from healthy donors, was pre-treated with compounds for one hour at 37° C. in a humidified 95% air/5% CO2 incubator. The blood was stimulated with 2.5 μL anti-human CD3 and anti-CD28 mAb at a final concentration of 1 μg/mL each for 24 hours at 37° C. IFN-γ in the supernatants was measured using AlphLISA kit (Cat # AL217).

SMILES | IC50 [1] [µM] | IC50 [2] [µM] | IC50 ([3]; Mus musculus, MC-38) [µM] | EC50 ([4]; Homo sapiens, T-cell, 20 h) [µM] | EC50 ([5]; Homo sapiens, 24 h) [µM] | IC50 [3] [µM] | EC50 [4] [µM] | EC50 [5] [µM]
CC[C@@H]1CN(c2c(Cl)c(=O)n(C)c3ccc(C#N)nc23)CCN1C(c1ccc(F)cc1)c1ccc(F)cc1 [Example 175, (R)-8-(4-(bis(4-fluorophenyl)methyl)-3-ethylpiperazin-1-yl)-7-chloro-5-methyl-6-oxo-5,6-dihydro-1,5-naphthyridine-2-carbonitrile] | 2.4 | 0.33 | 0.61 | 0.051 | 4.3 |  |  | 
Cn1c(=O)c(Cl)c(N2CCN(C(c3ccc(F)cc3)c3ccc(F)cc3)C(CO)C2)c2nc(C#N)ccc21 (single isomer, unassigned) [Example 101, 8-(4-(bis (4-fluorophenyl)methyl)-3-(hydroxymethyl)piperazin-1-yl)-7-chloro-5-methyl-6-oxo-5,6-dihydro-1,5-naphthyridine-2-carbonitrile] | 3.3 | 1.6 |  |  |  | 0.14 | 0.077 | 2.3
COCC1CN(c2cc(=O)n(C)c3ccc(C#N)nc23)CCN1C(c1ccc(F)cc1)c1ccc(F)cc1 (single isomer, unassigned) [Example 92, 8-(4-(bis(4-fluorophenyl)methyl)-3-(methoxymethyl)piperazin-1-yl)-5-methyl-6-oxo-5,6-dihydro-1,5-naphthyridine-2-carbonitrile] | 96 | 5.4 |  |  |  | 0.69 | 9.7 | 9
CC[C@@H]1CN(c2cc(=O)n(C)c3ccc(C#N)nc23)CCN1C(c1ccc(Cl)cc1)c1ccc(Cl)cc1 [Example 180, (R)-8-(4-(bis(4-chlorophenyl)methyl)-3-ethylpiperazin-1-yl)-5-methyl-6-oxo-5,6-dihydro-1,5-naphthyridine-2-carbonitrile] | 4.1 | 1.5 | 0.4 | 0.07 | 0.83 |  |  | 
Cc1ccc(C(c2ccc(F)cc2)N2C[C@H](C)N(c3cc(=O)n(C)c4ccc(C#N)nc34)C[C@H]2C)cc1 (single isomer, unassigned) [Example 252] | 0.66 | 0.44 |  |  |  | 0.022 | 0.16 | 0.43
Cn1c(=O)cc(N2CCN(C(c3ccc(F)cc3)c3ccc(F)cc3)C(CO)C2)c2nc(C#N)ccc21 (single isomer, unassigned) [Example 2, 8-(4-(bis(4-fluorophenyl)methyl)-3-(hydroxymethyl)piperazin-1-yl)-5-methyl-6-oxo-5,6-dihydro-1,5-naphthyridine-2-carbonitrile] | 2.6 | 3.3 | 0.21 | 0.12 |  |  |  | 2.7
C[C@@H]1CN(c2c(Br)c(=O)n(C)c3ccc(C#N)nc23)[C@@H](C)CN1C(c1ccc(F)cc1)c1ccc(F)cc1 [Example 19, 8-((2S,5R)-4-(bis(4-fluorophenyl)methyl)-2,5-dimethylpiperazin-1-yl)-7-bromo-5-methyl-6-oxo-5,6-dihydro-1,5-naphthyridine-2-carbonitrile] | 42 | 240 | 8.7 | 10 | 20 |  |  | 
CC(c1ccc(F)cc1)N1C[C@H](C)N(c2cc(=O)n(C)c3ccc(C#N)nc23)C[C@H]1C (single isomer, unassigned) [Example 308] | 0.025 | 0.16 | 0.081 |  | 0.52 |  | 0.29 | 
C[C@@H]1CN(c2cc(=O)n(C)c3ccc(C#N)nc23)CCN1C(c1ccc(Cl)cc1)c1ccc(Cl)cc1 [Example 104, (R)-8-(4-(bis(4-chlorophenyl)methyl)-3-methylpiperazin-1-yl)-5-methyl-6-oxo-5,6-dihydro-1,5-naphthyridine-2-carbonitrile, dimethylformamide] | 4.4 | 4.4 | 0.56 | 0.18 | 6.5 |  |  | 
